Literature values in patent US20250090614A1, “COMPOSITIONS AND METHODS FOR IMPROVING LUNG FUNCTION” (priority 2023, published 2025).

Assays:
[1] = test system: Idiopathic pulmonary fibrosis (IPF); conditions: Dasatinib and Quercetin given together, pilot study, Justice et al. 2019; cited from earlier work
senescent lung cells = conditions: mouse model, Palazzo et al. 2023; cited from earlier work

O=c1c(O)c(-c2ccc(O)c(O)c2)oc2cc(O)cc(O)c12 [Quercetin]
physical dysfunction in Idiopathic pulmonary fibrosis (IPF) [1]: showed promise

COC(=O)C1=C(C)NC(C)=C(C(=O)OC2CCCN(Cc3ccccc3)C2)C1c1cccc([N+](=O)[O-])c1 (stereo not drawn) [Benidipine]
lung emphysema (senescent lung cells): ameliorates | senescent lung cells (senescent lung cells): decrease
